Assay results published in patent US12275745B2, “Therapeutic compounds and methods of use” (Genentech, Inc., priority 2021, dated 2025).
pIC50: −log10 of the molar value. Where two headings read alike, the source gives them in different places.

Columns and labels:
[1] = biological target: TEAD4 (Homo sapiens, UniProt Q15561); assay: TR-FRET (Lipid HTRF) TEAD lipid pocket probe displacement assay, TEAD4; format: binding; details: His-tagged TEAD4, biotinylated lipid pocket probe, 4 hours
Description: (§1) His-tagged TEAD proteins are pre-incubated with TEAD project compounds for 30 minutes or 4 hours at room temperature. Biotinylated lipid pocket probes are then added to the TEAD/Compound mixture and incubated for 60 minutes at room temperature. The lipid pocket probe competes with the test compound for the TEAD lipid pocket until equilibrium is reached. After 60 minutes, Europium labelled anti-His (Perkin Elmer #AD0110) and XL665 labelled streptavidin (CIS Bio 610SAXAC) are added to the TEAD/test compound/lipid pocket mixture and incubated for 30 minutes or 4 hours. TR-FRET values are then measured using an EnVision multi-label plate reader (Perkin Elmer Cat #2104-001 0A.) If the lipid pocket probe binds to TEAD as expected, a TR-FRET signal results from the proximity of anti-His Eu and XL665. If a TEAD lipid pocket binder such as binds and displaces the lipid pocket probe, the disruption of the TEAD:probe interaction results in a decrease in TR-FRET signal. The potency of compounds as TEAD lipid pocket binders is determined by IC50 value generated using a non-linear 4 parameter curve fit.

[2] = biological target: TEAD3 (Homo sapiens, UniProt Q99594); assay: TR-FRET (Lipid HTRF) TEAD lipid pocket probe displacement assay, TEAD3; format: binding; details: His-tagged TEAD3, biotinylated lipid pocket probe, 4 hours
Description: as §1

[3] = biological target: T1, TEAD2 (Homo sapiens, UniProt Q15562);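 note: TR-FRET competition assay with His-tagged TEAD protein and a biotinylated lipid pocket probe, where probe displacement by compound lowers the signal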
Description: as §1

[4] = biological target: TEAD1 (Homo sapiens, UniProt P28347); assay: TR-FRET (Lipid HTRF) TEAD lipid pocket probe displacement assay, TEAD1; format: binding; details: His-tagged TEAD1, biotinylated lipid pocket probe, 4 hours
Description: as §1

[5] = biological target: T1, TEAD2; assay: biochemical
Description: as §1

TEAD3, sequence (Q99594 whole entry, species assumed): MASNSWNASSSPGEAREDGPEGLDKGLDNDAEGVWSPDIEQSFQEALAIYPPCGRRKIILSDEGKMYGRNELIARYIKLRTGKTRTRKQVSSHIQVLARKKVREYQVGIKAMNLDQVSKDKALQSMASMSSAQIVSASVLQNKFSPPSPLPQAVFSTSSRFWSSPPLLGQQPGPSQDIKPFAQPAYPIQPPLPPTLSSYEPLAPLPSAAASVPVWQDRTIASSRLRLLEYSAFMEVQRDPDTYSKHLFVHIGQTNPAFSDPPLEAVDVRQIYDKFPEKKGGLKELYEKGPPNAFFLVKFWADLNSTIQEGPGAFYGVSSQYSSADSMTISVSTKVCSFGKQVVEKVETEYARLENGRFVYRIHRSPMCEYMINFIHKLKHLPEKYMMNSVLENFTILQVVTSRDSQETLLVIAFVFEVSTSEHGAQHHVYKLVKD
T1 sequence (Q15562 whole entry, species assumed): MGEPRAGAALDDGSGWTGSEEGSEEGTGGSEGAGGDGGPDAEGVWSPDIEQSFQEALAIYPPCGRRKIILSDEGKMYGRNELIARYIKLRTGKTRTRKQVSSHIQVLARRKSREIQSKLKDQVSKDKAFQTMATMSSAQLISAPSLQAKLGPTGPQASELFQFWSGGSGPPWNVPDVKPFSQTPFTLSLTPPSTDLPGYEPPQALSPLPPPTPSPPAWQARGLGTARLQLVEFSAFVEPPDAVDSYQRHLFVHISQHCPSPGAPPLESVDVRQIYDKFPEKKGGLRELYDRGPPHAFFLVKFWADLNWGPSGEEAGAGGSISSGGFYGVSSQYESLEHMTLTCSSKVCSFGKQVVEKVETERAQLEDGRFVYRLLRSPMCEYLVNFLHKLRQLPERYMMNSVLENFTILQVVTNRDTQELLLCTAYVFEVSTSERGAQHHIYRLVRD
TEAD1, sequence (P28347 whole entry, species assumed): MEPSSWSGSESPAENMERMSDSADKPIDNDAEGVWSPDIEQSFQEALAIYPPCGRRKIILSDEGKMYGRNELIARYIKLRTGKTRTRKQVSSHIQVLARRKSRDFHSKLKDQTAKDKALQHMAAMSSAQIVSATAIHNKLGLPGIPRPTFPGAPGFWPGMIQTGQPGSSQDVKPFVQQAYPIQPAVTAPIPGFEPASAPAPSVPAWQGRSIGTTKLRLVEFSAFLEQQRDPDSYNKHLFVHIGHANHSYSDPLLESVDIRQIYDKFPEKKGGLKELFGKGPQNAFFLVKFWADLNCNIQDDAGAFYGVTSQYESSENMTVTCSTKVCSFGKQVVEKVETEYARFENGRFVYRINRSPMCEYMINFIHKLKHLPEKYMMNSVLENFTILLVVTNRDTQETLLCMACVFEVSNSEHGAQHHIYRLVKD
TEAD4, sequence (Q15561 whole entry, species assumed): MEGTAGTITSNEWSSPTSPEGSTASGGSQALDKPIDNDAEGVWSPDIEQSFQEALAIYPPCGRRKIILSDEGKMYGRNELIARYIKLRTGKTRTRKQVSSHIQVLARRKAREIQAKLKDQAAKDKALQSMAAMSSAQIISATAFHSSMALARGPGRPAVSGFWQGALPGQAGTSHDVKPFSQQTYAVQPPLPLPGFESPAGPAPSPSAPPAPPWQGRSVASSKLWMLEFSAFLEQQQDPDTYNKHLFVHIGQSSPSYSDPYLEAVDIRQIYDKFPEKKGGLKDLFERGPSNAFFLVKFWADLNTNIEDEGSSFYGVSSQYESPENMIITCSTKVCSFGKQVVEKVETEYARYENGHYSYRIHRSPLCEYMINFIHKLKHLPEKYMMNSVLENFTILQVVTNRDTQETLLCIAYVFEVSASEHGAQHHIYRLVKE

Row | pIC50 [1] | pIC50 [2] | pIC50 [3] | pIC50 [4] | pIC50 [5] | SMILES
1 | 7.64 | 5.89 | – | 7.03 | 7.41 | C=CC(=O)N(C)CCc1cc(-c2ccc(OC(F)(F)F)cc2)c2ncn(C)c2c1C#N [Compound 144, N-(2-(7-Cyano-1-methyl-4-(4-(trifluoromethoxy)phenyl)-1H-benzo[d]imidazol-6-yl)ethyl)-N-methylacrylamide]
2 | 7.92 | 6.62 | – | 8.16 | 7.72 | C=C(F)C(=O)N1CC(c2cc(-c3ccc(OC(F)(F)F)cc3)c3ncn(C)c3c2)C1 [Compound 145, 2-Fluoro-1-(3-(1-methyl-4-(4-(trifluoromethoxy)phenyl)-1H-benzo[d]imidazol-6-yl)azetidin-1-yl)prop-2-en-1-one]

Second part, the compound before the results:

Row | SMILES | pIC50 [1] | pIC50 [2] | pIC50 [3] | pIC50 [4] | pIC50 [5]
3 | C=CC(=O)NCc1cc(-c2ccc(OC(F)(F)F)cc2)c2ncn(C)c2c1[C@@H](C)O (single isomer, unassigned) [Compound 32] | 7.27 | 5.60 | 8.00 | 7.49 | –
4 | C=CC(=O)NCc1cc(-c2ccc(OC(F)(F)F)cc2)c2ncn(C)c2c1C#CCO [Compound 58, N-[[4-(3-hydroxyprop-1-ynyl)-3-methyl-7-[4-(trifluoromethoxy)phenyl]benzimidazol-5-yl]methyl]prop-2-enamide] | 8.46 | 7.03 | 8.22 | 8.16 | –
5 | C=CC(=O)NCc1cc(-c2ccc(OC(F)(F)F)cc2F)c2ncn(C)c2c1C#N [Compound 143, N-((7-Cyano-4-(2-fluoro-4-(trifluoromethoxy)phenyl)-1-methyl-1H-benzo[d]imidazol-6-yl)methyl)acrylamide] | 8.02 | 7.16 | – | 7.59 | 7.66
